The source made the active and inactive calls. No cut-off for these calls is given here.
Tests used:
[1] = target: Amyloid-beta precursor protein (Homo sapiens) (UniProt P05067); test: Inhibition of aggregation of human DHFR-fused amyloid beta (1 to 42) expressed in yeast harboring erg6delta assessed as increase in yeast viability at 10 uM measured up to 20 hrs in presence of MTX
[2] = Toxicity in Podospora anserina expressing GFP-fused amyloid beta (1 to 42) assessed as effect on lifespan and growth rate of fungi at 50 uM
Saccharomyces cerevisiae [3] = test: Toxicity in yeast harboring erg6delta expressing human DHFR-fused amyloid beta (1 to 42) at 100 uM; type: organism-based; settings: in vivo
[4] = Inhibition of aggregation of amyloid beta (17 to 40) assessed as fibril formation at 100 uM measured up to 24 hrs by transmission electron microscopic analysis
[5] = Inhibition of aggregation of amyloid beta (17 to 40) assessed as fibril formation at 100 uM measured up to 13 hrs by high throughput thioflavin-T binding assay
[6] = Elongation of aggregates of GFP-fused amyloid beta (1 to 42) expressed in Podospora anserina extract assessed as reduction of amyloid beta SDS-resistant oligomers after 1 hr by SDS-PAGE and Western blot analysis
[7] = Inhibition of aggregation of GFP-fused amyloid beta (1 to 42) expressed in Podospora anserina assessed as reduction of amyloid beta SDS-resistant oligomers at 50 uM after 24 hrs by SDS-PAGE and Western blot analysis
[8] = Inhibition of aggregation of GFP-fused amyloid beta (1 to 42) expressed in Podospora anserina assessed as reduction of amyloid beta SDS-resistant oligomers at 50 uM after 10 hrs to 5 days by SDS-PAGE and Western blot analysis
[9] = Cytotoxicity against human HeLa cells after 24 hrs by XTT assay; type: cell-based
[10] = Lipophilicity, log P of the compound; type: physicochemical; settings: octanol/water
[11] = Inhibition of aggregation of amyloid beta (17 to 40) assessed as fibril formation at 100 uM measured up to 10 hrs by turbidimetry assay
[12] = Inhibition of aggregation of GFP-fused amyloid beta (1 to 42) expressed in Podospora anserina assessed as reduction of amyloid beta SDS-resistant oligomers at 100 uM after 24 hrs by SDS-PAGE and Western blot analysis
[13] = target: Amyloid-beta precursor protein (Homo sapiens) (UniProt P05067); test: Inhibition of aggregation of human DHFR-fused amyloid beta (1 to 42) expressed in yeast harboring erg6delta assessed as increase in yeast viability measured up to 20 hrs in presence of MTX
[14] = Toxicity in Podospora anserina expressing GFP-fused amyloid beta (1 to 42) assessed as effect on lifespan and growth rate of fungi at 100 uM
Saccharomyces cerevisiae [15] = test: Toxicity in yeast harboring erg6delta expressing human DHFR-fused amyloid beta (1 to 42) at 10 uM; type: organism-based; settings: in vivo

Amyloid-beta precursor protein (Homo sapiens), sequence (P05067 whole entry, the tested form may be a part): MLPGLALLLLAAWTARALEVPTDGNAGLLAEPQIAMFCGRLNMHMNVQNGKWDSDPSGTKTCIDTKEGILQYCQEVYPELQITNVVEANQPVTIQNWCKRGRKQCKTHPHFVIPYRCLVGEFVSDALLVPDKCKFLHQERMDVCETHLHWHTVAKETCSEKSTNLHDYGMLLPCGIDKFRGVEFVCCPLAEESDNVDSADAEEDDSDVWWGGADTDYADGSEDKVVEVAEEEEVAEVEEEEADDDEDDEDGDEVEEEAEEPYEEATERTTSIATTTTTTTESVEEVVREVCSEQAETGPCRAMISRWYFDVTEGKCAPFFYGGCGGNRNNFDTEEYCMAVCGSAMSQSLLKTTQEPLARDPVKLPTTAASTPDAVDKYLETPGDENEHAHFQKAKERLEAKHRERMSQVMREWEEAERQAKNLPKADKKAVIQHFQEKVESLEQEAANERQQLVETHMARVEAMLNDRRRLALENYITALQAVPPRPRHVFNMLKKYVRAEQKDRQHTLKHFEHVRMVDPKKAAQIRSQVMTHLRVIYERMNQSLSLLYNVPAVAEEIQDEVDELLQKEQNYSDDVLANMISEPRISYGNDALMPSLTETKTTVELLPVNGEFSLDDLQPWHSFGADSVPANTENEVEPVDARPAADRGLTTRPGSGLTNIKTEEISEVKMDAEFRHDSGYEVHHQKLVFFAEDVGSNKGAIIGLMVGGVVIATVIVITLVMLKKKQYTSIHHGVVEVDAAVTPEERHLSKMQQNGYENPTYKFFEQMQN

Compound	inhibition [4]	inhibition [5]	Activity [6]	inhibition [7]	inhibition [8]	logP [10]	inhibition [11]	inhibition [12]	inhibition [1]	Activity [2]	Activity (Saccharomyces cerevisiae [3])	MCC at 24 h [9] [µM]	inhibition [13]	Activity [14]	Activity (Saccharomyces cerevisiae [15])
O=C(Nc1ccccc1)Nc1ccc(Cl)cc1[N+](=O)[O-]	Active	Active	inactive	inactive	Active	3.7	Active	–	Active	Toxic	Toxic	20	–	–	–
O=S(=O)(Nc1ccc(N2CCCCC2)cc1)c1cc(Cl)sc1Cl	Active	Active	inactive	Active	Active	3.9	Active	–	Active	Non-toxic	–	17	Dose-dependent effect	–	–
Nc1c(S(=O)(=O)c2ccc(Cl)cc2)cnc2cc(-c3ccccc3)nn12	Active	Active	inactive	inactive	–	3.3	Active	–	–	Non-toxic	Toxic	22	–	–	–

Second part, led by results:

inhibition [4]	inhibition [5]	Activity [6]	inhibition [7]	inhibition [8]	logP [10]	inhibition [11]	inhibition [12]	Compound	inhibition [1]	Activity [2]	Activity (Saccharomyces cerevisiae [3])	MCC at 24 h [9] [µM]	inhibition [13]	Activity [14]	Activity (Saccharomyces cerevisiae [15])
Active	Active	inactive	–	Active	2.8	Active	inactive	Cc1nc2sc3c(c2c(=O)o1)CCCC3	Active	–	–	184	Dose-dependent effect	Toxic	–
Active	Active	–	–	–	–	Active	–	CCCCC(CC)CNC(=N)NC(=N)NCCCCCCNC(=N)NC(=N)NCC(CC)CCCC.Cl.Cl (configuration not stated) [ALEXIDINE DIHYDROCHLORIDE]	–	–	–	2	–	–	Toxic

Reference: ChEMBL document CHEMBL2176928, “Discovery of novel inhibitors of amyloid β-peptide 1-42 aggregation” (J Med Chem, 2012)
